Patent US20060160865A1, “Pyridinyl carbamates” (Novo Nordisk A/S, priority 2003, published 2006)

These molecules were tested against T1, Hormone-sensitive lipase (HSL) (Homo sapiens, UniProt Q05469) (assay: Assay 3190.1: percent inhibition of hormone sensitive lipase by compound at 10 μM (fluorochrome-labeled triacylglyceride substrate)). Settings: 10 μM sample concentration; % activity relative to non-inhibited sample (no compound); 30 min pre-incubation at 25° C., 120 min at 37° C.; read-out: Test 3190.1 HSL_FL % ACTIVITY.
T1 construct: made in house
T1 sequence (Q05469 1-775 isoform Q05469-2): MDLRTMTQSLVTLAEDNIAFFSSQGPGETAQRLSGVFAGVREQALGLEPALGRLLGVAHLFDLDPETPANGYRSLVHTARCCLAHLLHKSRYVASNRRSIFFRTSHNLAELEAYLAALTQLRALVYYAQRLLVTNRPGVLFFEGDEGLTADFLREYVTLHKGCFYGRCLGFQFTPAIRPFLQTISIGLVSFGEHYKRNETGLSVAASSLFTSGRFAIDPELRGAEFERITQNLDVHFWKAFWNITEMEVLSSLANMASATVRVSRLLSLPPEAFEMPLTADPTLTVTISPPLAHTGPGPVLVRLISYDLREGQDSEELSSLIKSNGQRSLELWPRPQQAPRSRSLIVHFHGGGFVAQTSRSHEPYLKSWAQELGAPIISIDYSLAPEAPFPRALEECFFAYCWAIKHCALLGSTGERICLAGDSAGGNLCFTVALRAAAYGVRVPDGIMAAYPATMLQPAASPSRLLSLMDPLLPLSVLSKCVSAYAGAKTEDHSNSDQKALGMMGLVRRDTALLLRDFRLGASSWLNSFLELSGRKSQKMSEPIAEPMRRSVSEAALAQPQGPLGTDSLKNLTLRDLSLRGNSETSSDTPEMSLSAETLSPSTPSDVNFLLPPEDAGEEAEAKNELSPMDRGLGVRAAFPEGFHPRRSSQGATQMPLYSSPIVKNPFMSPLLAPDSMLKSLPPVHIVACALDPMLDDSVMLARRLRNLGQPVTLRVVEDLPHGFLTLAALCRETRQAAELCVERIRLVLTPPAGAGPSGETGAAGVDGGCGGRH
Format: biochemical
From the text: Materials. The Hormone-sensitive lipase was provided by Dr. Cecilia Holm, from Lund University Sweden or produced and purified by Novo Nordisk (NN) using the reagents and protocols used by Dr. Holm. The substrates used are: ^3H-labeled triolein (TO) from Amersham, Buckinghamshire, U.K. cat No. TRA191; 5-20 Ci/mmol dissolved in toluene, triolein (Sigma, Cat. No. T-1740), fluorochrome-labeled triacylglyceride (cis-octadec-9-enoic acid 2-[12-(7-nitrobenzo[1,2,5]oxadiazol-4-ylamino)dodecanoyloxy]-1-cis-octadec-9-enoyloxymethyl-ethyl ester) prepared by Novo Nordisk (NN) by conventional methods, and 1,3-(di[^3H]-stearin), 2-(PEG-Biotin)glycerol prepared in collaboration with Amersham Pharmacia Biotech, UK and described in WO 01/073442. Phosphatidyl choline (PC) and phosphatidyl inositol (PI) are from Sigma (St Luis Mo. cat. Nos. P-3556 and P-5954 respectively). All other reagents are of commercial grade and obtained from various commercial sources.
3190.1: Assay for determination of percent inhibition of hormone sensitive lipase by compound at 10 μM sample concentration.
A lipid emulsion with fluorochrome-labeled triacylglyceride and phospholipid is used as substrate with a standard concentration of highly purified HSL (12 μg/mL initial concentration corresponding to 600 ng/mL final concentration). BSA is added as product acceptor. The transfer of the fluorochrome from the lipid phase to the water (BSA) phase changes the fluorescent properties of the fluorochrome. The changes can be monitored on a fluorimeter with an excitation wavelength of 450 nm and an emission wavelength of 545 nm.
Compound and HSL (20 μL compound, 10 μL enzyme and 70 μL PED-BSA buffer) is pre-incubated for 30 min at 25° C. before addition of substrate (100 μL). Amount of formed product is measured after 120 min incubation at 37° C.
Results are given as percent activity relative to a non-inhibited sample (no compound). 3190.2: Assay for determination of IC50 value for the inhibition of hormone sensitive lipase by compound. Standard concentrations of compound are 100 μM and 5-fold dilutions (initial concentration corresponding to 10 μM final concentration and 5-fold).

Row | Compound | activity at 10 µM [%]
1 | CN(C(=O)Oc1ccc(NC(=O)c2cccc(C(F)(F)F)c2F)cn1)c1ccccc1 [Example 28, Methyl-phenyl-carbamic acid 5-(2-fluoro-3-trifluoromethyl-benzoylamino)-pyridin-2-yl ester] | 1
2 | CN(C(=O)Oc1ccc(NCC(=O)OC(C)(C)C)cn1)c1ccccc1 [Example 2, [6-(Methyl-phenyl-carbamoyloxy)-pyridin-3-ylamino]-acetic acid tert-butyl ester] | 1
3 | COc1ccccc1N(C)C(=O)Oc1ccc(N2C(=O)CC(C)(C)CC2=O)cn1 [Example 32, (2-Methoxy-phenyl)-methyl-carbamic acid 4,4-dimethyl-2,6-dioxo-3,4,5,6-tetrahydro-2H-[1,3′]bipyridinyl-6′-yl ester] | 6
4 | COc1ccc(N(C)C(=O)Oc2ccc(N3C(=O)CC(C)(C)CC3=O)cn2)cc1 [Example 72, (4-Methoxy-phenyl)-methyl-carbamic acid 4,4-dimethyl-2,6-dioxo-3,4,5,6-tetrahydro-2H-[1,3′]bipyridinyl-6′-yl ester] | 2
5 | CCC1NC(=S)N(c2ccc(OC(=O)N(C)c3ccccc3)nc2)C1=O (stereo not drawn) [Example 8, Methyl-phenyl-carbamic acid 5-(4-ethyl-5-oxo-2-thioxo-imidazolidin-1-yl)-pyridin-2-yl ester] | 3
6 | CC1CCCCN1Cc1ccc(C(=O)Nc2ccc(OC(=O)N(C)c3ccccc3)nc2)cc1 (stereo not drawn) [Example 43, Methyl-phenyl-carbamic acid 5-[4-(2-methyl-piperidin-1-ylmethyl)-benzoylamino]-pyridin-2-yl ester] | 7
7 | CN(C(=O)Oc1ccc(N2C(=O)CC(C)(C)CC2=O)cn1)c1ccc(CCO)cc1 [Example 77, [4-(2-Hydroxy-ethyl)-phenyl]-methyl-carbamic acid 4,4-dimethyl-2,6-dioxo-3,4,5,6-tetrahydro-2H-[1,3′]bipyridinyl-6′-yl ester] | 12
8 | CN(C)c1cccc(C(=O)Nc2ccc(OC(=O)N(C)c3ccccc3)nc2)c1 [Example 31, Methyl-phenyl-carbamic acid 5-(3-dimethylamino-benzoylamino)-pyridin-2-yl ester] | 3
9 | CCCCNC(=S)Nc1ccc(OC(=O)N(C)c2ccccc2)nc1 [Example 16, Methyl-phenyl-carbamic acid 5-(3-butyl-thioureido)-pyridin-2-yl ester] | 1
10 | COc1cccc(C(=O)Nc2ccc(OC(=O)N(C)c3ccccc3)nc2)c1 [Example 21, Methyl-phenyl-carbamic acid 5-(3-methoxy-benzoylamino)-pyridin-2-yl ester] | 1
11 | CN(C(=O)Oc1ccc(NC(=O)c2ccc(-n3ccnc3)cc2)cn1)c1ccccc1 [Example 57, Methyl-phenyl-carbamic acid 5-(4-imidazol-1-yl-benzoylamino)-pyridin-2-yl ester] | 17
12 | CC1CCN(Cc2ccc(C(=O)Nc3ccc(OC(=O)N(C)c4ccccc4)nc3)cc2)CC1 [Example 41, Methyl-phenyl-carbamic acid 5-[4-(4-methyl-piperidin-1-ylmethyl)-benzoylamino]-pyridin-2-yl ester] | 3
13 | CN(C(=O)Oc1ccc(NC(=O)c2ccc(CN3CCCC3)cc2)cn1)c1ccccc1 [Example 47, Methyl-phenyl-carbamic acid 5-(4-pyrrolidin-1-ylmethyl-benzoylamino)-pyridin-2-yl ester] | 7
14 | CN(C(=O)Oc1ccc(NC(=O)NC(C)(C)C)cn1)c1ccccc1 [Example 35, Methyl-phenyl-carbamic acid 5-(3-tert-butyl-ureido)-pyridin-2-yl ester] | 8
15 | C[C@@H]1CN(Cc2ccc(C(=O)Nc3ccc(OC(=O)N(C)c4ccccc4)nc3)cc2)C[C@H](C)O1 [Example 52, cis-Methyl-phenyl-carbamic acid 5-[4-(2,6-dimethyl-morpholin-4-ylmethyl)-benzoylamino]-pyridin-2-yl ester] | 4
16 | CC1CCN(C(=S)Nc2ccc(OC(=O)N(C)c3ccccc3)nc2)CC1 [Example 63, Methyl-phenyl-carbamic acid 5-[(4-methyl-piperidine-1-carbothioyl)-amino]-pyridin-2-yl ester] | 2
17 | CCN(CC)c1ccc(C(=O)Nc2ccc(OC(=O)N(C)c3ccccc3)nc2)cc1 [Example 58, Methyl-phenyl-carbamic acid 5-(4-diethylamino-benzoylamino)-pyridin-2-yl ester] | 11
18 | CN(C(=O)Oc1ccc(N2C(=O)CC(C)(C)CC2=O)cn1)c1ccc(Br)cc1 [Example 65, (4-Bromo-phenyl)-methyl-carbamic acid 4,4-dimethyl-2,6-dioxo-3,4,5,6-tetrahydro-2H-[1,3′]bipyridinyl-6′-yl ester] | 0
19 | CN(C(=O)Oc1ccc(CCN2C(=O)CC(C)(C)CC2=O)cn1)c1ccccc1 [Example 1, Methyl-phenyl-carbamic acid 5-[2-(4,4-dimethyl-2,6-dioxo-piperidin-1-yl)-ethyl]-pyridin-2-yl ester] | 0
20 | CN(C(=O)Oc1ccc(N2C(=O)CNC2=S)cn1)c1ccccc1 [Example 5, Methyl-phenyl-carbamic acid 5-(5-oxo-2-thioxo-imidazolidin-1-yl)-pyridin-2-yl ester] | 9
21 | CN(C(=O)Oc1ccc(NC(=S)NCC(C)(C)C)cn1)c1ccccc1 [Example 12, Methyl-phenyl-carbamic acid 5-[3-(2,2-dimethyl-propyl)-thioureido]-pyridin-2-yl ester] | 2
